Peptide text beside a SMILES is read from it. * marks the point of attachment. Cbz = O=C(OCc1ccccc1)*; CH2F = FC*
How the values were obtained:
Type in all cases: cell-based, human
[1] = test system: GFRα1-overexpressing MG-63 cells; assay: WST-1 cell viability of GFRα1-overexpressing osteosarcoma cells; conditions: with DMSO, 3-MA or Baf, then cisplatin 20 μM 24 hr
Description: FIG. 3. GFRα1-induced autophagy enhances the chemoresistance of osteosarcoma cells induced by cisplatin. (a) Control and GFRα1-deficient MG-63 cells were transiently transfected with a mRFP-GFP tandem fluorescent-tagged LC3 (mRFP-GFP-LC3) vector and then treated with cisplatin (20μM) for 24 hr. Left, representative images of RFP-LC3 and GFP-LC3 puncta. Scale bar, 20 μm. Right, quantitative analysis of the number of yellow puncta and the number of RFP-LC3 puncta in the combined images. The values are represented as a mean±s.d.m. (n=3). ** denotes p<0.05 by t-test. (b) Control and GFRα1-deficient MG-63 cells were treated with cisplatin (20 μM) for 24 hr and then stained with acridine orange. Top, representative images of cells stained with acridine orange. Scale bar, 20 μm. Bottom, quantitative analysis of the number of AVOs. The values are represented as a mean±s.d.m. (n=3). ** denotes p<0.05 by t-test. (c) Control and GFRα1-deficient MG-63 cells were treated with cisplatin (20 μM) for 24 hr and then analyzed by TEM. Top, representative images of autophagic vacuoles (yellow arrows) detected after cisplatin treatment in control MG-63 cells. Scale bar, 100 nm. Bottom, quantitative analysis of the number of autophagic vacuoles. The values are represented as a mean±s.d.m. (n=3). ** denotes p<0.05 by t-test. (d) Immunoblot analysis of control and GFRα1-overexpressing osteosarcoma cell lysates with antibodies specific for GFRα1, LC3 and β-actin. […] (e) Quantitative analysis of the number of yellow puncta and the number of RFP-LC3 puncta in control and GFRα1-overexpressing MG-63 cells. […] Bottom, quantitative analysis of the number of AVOs. […] (h) Control and GFRα1-overexpressing MG-63 cells were treated with cisplatin (20 μM) for 24 hr and then analyzed by TEM. Top, representative images of autophagic vacuoles detected after cisplatin treatment in control and GFRα1-overexpressing MG-63 cells. […] Bottom, quantitative analysis of the number of autophagic vacuoles. […] Cell viability was measured using the WST-1 assay. […] Cell viability was measured using the WST-1 assay. […]

[2] = test system: LC3-II in GFRα1-overexpressing MG-63 cells; assay: Immunoblot of LC3-II in GFRα1-overexpressing cells; conditions: 3-MA (10 μM) or Baf (100 nM)
Description: FIG. 3. GFRα1-induced autophagy enhances the chemoresistance of osteosarcoma cells induced by cisplatin. (a) Control and GFRα1-deficient MG-63 cells were transiently transfected with a mRFP-GFP tandem fluorescent-tagged LC3 (mRFP-GFP-LC3) vector and then treated with cisplatin (20μM) for 24 hr. Left, representative images of RFP-LC3 and GFP-LC3 puncta. Scale bar, 20 μm. Right, quantitative analysis of the number of yellow puncta and the number of RFP-LC3 puncta in the combined images. The values are represented as a mean±s.d.m. (n=3). ** denotes p<0.05 by t-test. (b) Control and GFRα1-deficient MG-63 cells were treated with cisplatin (20 μM) for 24 hr and then stained with acridine orange. […] Bottom, quantitative analysis of the number of AVOs. […] (c) Control and GFRα1-deficient MG-63 cells were treated with cisplatin (20 μM) for 24 hr and then analyzed by TEM. Top, representative images of autophagic vacuoles (yellow arrows) detected after cisplatin treatment in control MG-63 cells. […] Bottom, quantitative analysis of the number of autophagic vacuoles. […] (e) Quantitative analysis of the number of yellow puncta and the number of RFP-LC3 puncta in control and GFRα1-overexpressing MG-63 cells. […] Bottom, quantitative analysis of the number of AVOs. […] (h) Control and GFRα1-overexpressing MG-63 cells were treated with cisplatin (20 μM) for 24 hr and then analyzed by TEM. […]

[3] = test system: GFRα1-overexpressing MG-63 clone #4; assay: Colony-forming assay in the presence of cisplatin; conditions: cisplatin 20 μM 10 days; 3-MA (10 μM), Baf (100 nM), CQ (30 μg/ml)
From the text: FIG. 3. […] Scale bar, 20 μm. […] Scale bar, 20 μm. […] Scale bar, 20 μm.

[4] = test system: Caspase-3 activity in control and GFRα1-deficient MG-63 cells; assay: Caspase-3 activity (Colorimetric CaspACE assay); conditions: cisplatin 20 μM 24 hr, ZVAD-FMK 50 μM
From the text: FIG. 2. GFRα1 suppresses the chemosensitivity of osteosarcoma cells induced by cisplatin. (a) Generation of GFRα1-deficient osteosarcoma cell lines with GFRα1 shRNA. Both MG-63 and U-2 OS cells were transfected with control or GFRα1 shRNA. Immunoblot analysis of control and GFRα1-deficient stable osteosarcoma cell lysates with antibodies specific for GFRα1 and β-actin. (b) Cell viability of GFRα1-deficient osteosarcoma cells after cisplatin treatment. Control or GFRα1-deficient cells were cultured and treated with different concentrations of cisplatin for 24 hr. Cell viability was measured using the WST-1 assay. The values are represented as a mean±s.d.m. (n=3). ** denotes p<0.05 by t-test. (c) Apoptotic response of GFRα1-deficient osteosarcoma cells after cisplatin treatment. […] Apoptotic cells by FITC-Annexin V staining (top) and viable cells by PI staining (bottom) were analyzed through flow cytometry. […] Cell viability was measured using the WST-1 assay. […] Apoptotic cells by FITC-Annexin V staining (top) and viable cells by PI staining (bottom) were analyzed through flow cytometry. […]
Apoptosis Assays. […] Apoptotic cells were analyzed using a FACSCalibur flow cytometer with CellQuest software (Becton Dickinson, Franklin Lakes, N.J.). […] Caspase 3 activity was analyzed by the Colorimetric CaspACE™ Assay System (Promega, Madison, Wis.) according the manufacturer's instructions. […]

CO/C1=C\C(C)=C\[C@@H](C)[C@@H](O)[C@@H](C)C/C(C)=C/C=C/[C@H](OC)[C@@H]([C@@H](C)[C@@H](O)[C@H](C)[C@@]2(O)C[C@@H](O)[C@H](C)[C@@H](C(C)C)O2)OC1=O [Baf, bafilomycin A1]
increase of cell proliferation in GFRα1 overexpressing cells [1]: not | level of LC3-II expression [2]: increased | number of colonies [3]: effectively reduced

COC(=O)C[C@H](NC(=O)[C@H](C)NC(=O)[C@@H](NC(=O)OCc1ccccc1)C(C)C)C(=O)CF [ZVAD-FMK] (Cbz-Val-Ala-Asp(OMe)-CH2F)
Caspase-3 activity increase in cisplatin-treated GFRα1-deficient MG-63 cells [4]: reversed this effect
